# Test results taken from the supplement of paper PMC10307832.
# Tests used:
# Test in all cases: relative viability (nuclei count vs DMSO), 5 days (fraction); higher = more cells survive
# [1] = compound: NS(=O)(=O)OC[C@@H]1C[C@@H](n2ccc3c(N[C@H]4CCc5ccccc54)ncnc32)C[C@@H]1O [MLN4924] + Nc1ncn([C@H]2C[C@H](O)[C@@H](CO)O2)c(=O)n1 [Decitabine] (partner 2 µM)
# Summary of the method: (§1)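 After 5 days of treatment, lung cancer cells in 1536-well plates were fixed and stained in a single step (final 0.05% Triton X-100, 1% formaldehyde, 1 ug/ml Hoechst) and their nuclei counted on 4× images. Treatment had been applied by pin tool the day after seeding as one drug alone or as a fixed anchor-drug dose with five library-drug doses (not always all listed) in √10 steps. Relative viability is the nuclei count of treated wells divided by that of vehicle wells, and values are medians of duplicate plates.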
# [2] = compound: CC[C@H](C)N1C=C(C2=C(C=C(C=C21)C3=CN=C(C=C3)N4CCNCC4)C(=O)NCC5=C(C=C(NC5=O)C)C)C [GSK126] + CC1(C)CCC(c2ccc(Cl)cc2)=C(CN2CCN(c3ccc(C(=O)NS(=O)(=O)c4ccc(N[C@H](CCN5CCOCC5)CSc5ccccc5)c(S(=O)(=O)C(F)(F)F)c4)cc3)CC2)C1 [Navitoclax] (partner 0.5 µM)
# Summary of the method: as §1
# [3] = compound: NS(=O)(=O)OC[C@@H]1C[C@@H](n2ccc3c(N[C@H]4CCc5ccccc54)ncnc32)C[C@@H]1O [MLN4924] + O=C(CCCCCCC(=O)Nc1ccccc1)NO [Vorinostat] (partner 1 µM)
# Summary of the method: as §1
# [4] = compound: NS(=O)(=O)OC[C@@H]1C[C@@H](n2ccc3c(N[C@H]4CCc5ccccc54)ncnc32)C[C@@H]1O [MLN4924] + NC(=O)Nc1cc(-c2cccc(F)c2)sc1C(=O)N[C@H]1CCCNC1 [AZD7762] (partner 0.2 µM)
# Summary of the method: as §1
cell line,measurement,setting,value
LC-2-ad,relative viability,[1]; first compound 0.04 µM,0.791
same,relative viability,[1]; first compound 0.1265 µM,0.748
same,relative viability,[1]; first compound 0.4 µM,0.585
same,relative viability,[1]; first compound 1.265 µM,0.508
same,relative viability,[1]; first compound 4 µM,0.322
same,relative viability,[2]; first compound 0.08 µM,0.468
same,relative viability,[2]; first compound 0.253 µM,0.383
same,relative viability,[2]; first compound 0.8 µM,0.506
same,relative viability,[2]; first compound 2.53 µM,0.477
same,relative viability,[2]; first compound 8 µM,0.484
same,relative viability,[3]; first compound 0.04 µM,0.612
same,relative viability,[3]; first compound 0.1265 µM,0.63
same,relative viability,[3]; first compound 0.4 µM,0.508
same,relative viability,[3]; first compound 1.265 µM,0.214
same,relative viability,[3]; first compound 4 µM,0.202
same,relative viability,[4]; first compound 0.04 µM,0.376
same,relative viability,[4]; first compound 0.1265 µM,0.9
same,relative viability,[4]; first compound 0.4 µM,0.837
same,relative viability,[4]; first compound 1.265 µM,0.376
same,relative viability,[4]; first compound 4 µM,0.236
NCI-H460,relative viability,[1]; first compound 0.04 µM,0.524
same,relative viability,[1]; first compound 0.1265 µM,0.462
same,relative viability,[1]; first compound 0.4 µM,0.325
same,relative viability,[1]; first compound 1.265 µM,0.0402
same,relative viability,[1]; first compound 4 µM,0.0249
same,relative viability,[2]; first compound 0.08 µM,1.14
same,relative viability,[2]; first compound 0.253 µM,1.17
same,relative viability,[2]; first compound 0.8 µM,1.17
same,relative viability,[2]; first compound 2.53 µM,1.1
same,relative viability,[2]; first compound 8 µM,1.18
same,relative viability,[3]; first compound 0.04 µM,0.679
same,relative viability,[3]; first compound 0.1265 µM,0.827
same,relative viability,[3]; first compound 0.4 µM,0.797
same,relative viability,[3]; first compound 1.265 µM,0.115
same,relative viability,[3]; first compound 4 µM,0.0271
same,relative viability,[4]; first compound 0.04 µM,0.575
same,relative viability,[4]; first compound 0.1265 µM,0.772
same,relative viability,[4]; first compound 0.4 µM,0.621
same,relative viability,[4]; first compound 1.265 µM,0.206
same,relative viability,[4]; first compound 4 µM,0.0543
NCI-H1915,relative viability,[1]; first compound 0.04 µM,0.271
same,relative viability,[1]; first compound 0.1265 µM,0.262
same,relative viability,[1]; first compound 0.4 µM,0.235
same,relative viability,[1]; first compound 1.265 µM,0.202
same,relative viability,[1]; first compound 4 µM,0.142
same,relative viability,[2]; first compound 0.08 µM,0.83
same,relative viability,[2]; first compound 0.253 µM,0.789
same,relative viability,[2]; first compound 0.8 µM,0.786
same,relative viability,[2]; first compound 2.53 µM,0.789
same,relative viability,[2]; first compound 8 µM,0.786
same,relative viability,[3]; first compound 0.04 µM,0.52
same,relative viability,[3]; first compound 0.1265 µM,0.503
same,relative viability,[3]; first compound 0.4 µM,0.339
same,relative viability,[3]; first compound 1.265 µM,0.149
same,relative viability,[3]; first compound 4 µM,0.143
same,relative viability,[4]; first compound 0.04 µM,0.844
same,relative viability,[4]; first compound 0.1265 µM,0.786
same,relative viability,[4]; first compound 0.4 µM,0.713
same,relative viability,[4]; first compound 1.265 µM,0.265
same,relative viability,[4]; first compound 4 µM,0.162
NCI-H1299,relative viability,[2]; first compound 0.08 µM,1.05
same,relative viability,[2]; first compound 0.253 µM,1.07
same,relative viability,[2]; first compound 0.8 µM,1.01
same,relative viability,[2]; first compound 2.53 µM,1.03
same,relative viability,[2]; first compound 8 µM,1.02
NCI-H1792,relative viability,[1]; first compound 0.04 µM,0.72
same,relative viability,[1]; first compound 0.1265 µM,0.556
same,relative viability,[1]; first compound 0.4 µM,0.571
same,relative viability,[1]; first compound 1.265 µM,0.377
same,relative viability,[1]; first compound 4 µM,0.219
same,relative viability,[2]; first compound 0.08 µM,0.733
same,relative viability,[2]; first compound 0.253 µM,0.644
same,relative viability,[2]; first compound 0.8 µM,0.655
same,relative viability,[2]; first compound 2.53 µM,0.664
same,relative viability,[2]; first compound 8 µM,0.658
same,relative viability,[4]; first compound 0.04 µM,0.914
same,relative viability,[4]; first compound 0.1265 µM,0.866
same,relative viability,[4]; first compound 0.4 µM,1.21
same,relative viability,[4]; first compound 1.265 µM,0.413
same,relative viability,[4]; first compound 4 µM,0.242
NCI-H2009,relative viability,[1]; first compound 0.04 µM,0.342
same,relative viability,[1]; first compound 0.1265 µM,0.289
same,relative viability,[1]; first compound 0.4 µM,0.218
same,relative viability,[1]; first compound 1.265 µM,0.174
same,relative viability,[1]; first compound 4 µM,0.118
same,relative viability,[2]; first compound 0.08 µM,1.23
same,relative viability,[2]; first compound 0.253 µM,1.14
same,relative viability,[2]; first compound 0.8 µM,1.19
same,relative viability,[2]; first compound 2.53 µM,1.1
same,relative viability,[2]; first compound 8 µM,1.16
same,relative viability,[3]; first compound 0.04 µM,0.584
same,relative viability,[3]; first compound 0.1265 µM,0.345
same,relative viability,[3]; first compound 0.4 µM,0.214
same,relative viability,[3]; first compound 1.265 µM,0.106
same,relative viability,[3]; first compound 4 µM,0.103
SK-MES-1,relative viability,[1]; first compound 0.04 µM,0.405
same,relative viability,[1]; first compound 0.1265 µM,0.339
same,relative viability,[1]; first compound 0.4 µM,0.233
same,relative viability,[1]; first compound 1.265 µM,0.16
same,relative viability,[1]; first compound 4 µM,0.205
same,relative viability,[2]; first compound 0.08 µM,1.4
same,relative viability,[2]; first compound 0.253 µM,1.27
same,relative viability,[2]; first compound 0.8 µM,1.1
same,relative viability,[2]; first compound 2.53 µM,1.33
same,relative viability,[2]; first compound 8 µM,1.16
same,relative viability,[3]; first compound 0.04 µM,1.14
same,relative viability,[3]; first compound 0.1265 µM,1.02
same,relative viability,[3]; first compound 0.4 µM,0.351
same,relative viability,[3]; first compound 1.265 µM,0.162
same,relative viability,[3]; first compound 4 µM,0.216
NCI-H1650,relative viability,[1]; first compound 0.04 µM,0.371
same,relative viability,[1]; first compound 0.1265 µM,0.388
same,relative viability,[1]; first compound 0.4 µM,0.252
same,relative viability,[1]; first compound 1.265 µM,0.175
same,relative viability,[1]; first compound 4 µM,0.193
same,relative viability,[2]; first compound 0.08 µM,1.33
same,relative viability,[2]; first compound 0.253 µM,1.19
same,relative viability,[2]; first compound 0.8 µM,1.1
same,relative viability,[2]; first compound 2.53 µM,1.12
same,relative viability,[2]; first compound 8 µM,1.06
same,relative viability,[3]; first compound 0.04 µM,0.411
same,relative viability,[3]; first compound 0.1265 µM,0.352
same,relative viability,[3]; first compound 0.4 µM,0.22
same,relative viability,[3]; first compound 1.265 µM,0.109
same,relative viability,[3]; first compound 4 µM,0.176
NCI-H650,relative viability,[1]; first compound 0.04 µM,0.272
same,relative viability,[1]; first compound 0.1265 µM,0.253
same,relative viability,[1]; first compound 0.4 µM,0.201
same,relative viability,[1]; first compound 1.265 µM,0.167
same,relative viability,[1]; first compound 4 µM,0.165
same,relative viability,[3]; first compound 0.04 µM,0.446
same,relative viability,[3]; first compound 0.1265 µM,0.306
same,relative viability,[3]; first compound 0.4 µM,0.169
same,relative viability,[3]; first compound 1.265 µM,0.126
same,relative viability,[3]; first compound 4 µM,0.143
same,relative viability,[4]; first compound 0.04 µM,1.1
same,relative viability,[4]; first compound 0.1265 µM,0.578
same,relative viability,[4]; first compound 0.4 µM,0.371
same,relative viability,[4]; first compound 1.265 µM,0.231
same,relative viability,[4]; first compound 4 µM,0.148
NCI-H1648,relative viability,[1]; first compound 0.04 µM,0.572
same,relative viability,[1]; first compound 0.1265 µM,0.507
same,relative viability,[1]; first compound 0.4 µM,0.398
same,relative viability,[1]; first compound 1.265 µM,0.305
same,relative viability,[1]; first compound 4 µM,0.336
same,relative viability,[3]; first compound 0.04 µM,0.249
same,relative viability,[3]; first compound 0.1265 µM,0.296
same,relative viability,[3]; first compound 0.4 µM,0.276
same,relative viability,[3]; first compound 1.265 µM,0.224
same,relative viability,[3]; first compound 4 µM,0.309
same,relative viability,[4]; first compound 0.04 µM,0.777
same,relative viability,[4]; first compound 0.1265 µM,0.727
same,relative viability,[4]; first compound 0.4 µM,0.526
same,relative viability,[4]; first compound 1.265 µM,0.33
same,relative viability,[4]; first compound 4 µM,0.223
